In PubChem BioAssay (NCI):
Values joined by “and” are separate entries in the source; they are usually repeats but may differ in a detail not shown here. Equal values may be shown once.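 Following 48 hours of exposure in 96-well plates, responses at five concentrations were used to interpolate endpoints linearly. GI50 is the concentration that inhibits growth by half. TGI marks complete inhibition of growth.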

How the values were obtained:
Assay in all cases: growth of human tumour cells (NCI), 48 h
[1] = test system: MOLT-4 leukemia
[2] = test system: SN12C renal
[3] = test system: ACHN renal
[4] = test system: HCT-116 colon
[5] = test system: HOP-92 NSCLC
[6] = test system: KM12 colon
[7] = test system: HT29 colon
[8] = test system: M14 melanoma
[9] = test system: NCI-H522 lung
[10] = test system: TK-10 renal
[11] = test system: NCI-H23 lung
[12] = test system: MDA-MB-435

Row | Structure (SMILES) | TGI [1] | TGI [2] [µM] | TGI [3] | TGI [4] [µM] | TGI [5] [µM] | TGI [6] | TGI [7] [µM] | TGI [8] | TGI [9] [µM] | TGI [10] [µM] | TGI [11] [µM] | TGI [12] | GI50 [3] [µM] | GI50 [6] [µM] | GI50 [7] [µM] | GI50 [12] [µM] | GI50 [9] [µM] | GI50 [10] [µM] | GI50 [11] [µM]
1 | Cc1ccc(NNc2cc(=O)[nH]c(=O)[nH]2)cc1Cl | 58.3 µM | > 100 | 21.4 µM | 28.1 | 27.9 | > 100 µM | 28.7 | 26.9 µM | 32.8 | 33.1 | 31.1 |  |  |  |  |  |  |  | 
2 | C/C=C/OC1C(C2COC(C)(C)O2)OC2OC(C)(C)OC21 (stereo unspecified) | > 100 µM |  | > 100 µM | > 100 | > 100 |  | > 100 | > 100 µM | > 100 | > 100 | > 100 | > 100 µM |  |  |  |  |  |  | 
3 | C=CCC1(O)c2cccc(O)c2C(=O)c2cccc(O)c21 (stereo unspecified) | 53.6 µM |  | 69.2 µM | 31.1 | 42.3 | 85 µM | 64.1 | 32 µM | 42 | 73.5 | 31.7 | 50.8 µM |  |  |  |  |  |  | 
4 | CC1C=C(NCC2(CO)CCC2)NC(N)=N1 (stereo unspecified) | > 100 µM | > 100 | > 100 µM | > 100 | > 100 | > 100 µM | > 100 | > 100 µM | > 100 |  | > 100 | > 100 µM |  |  |  |  |  |  | 
5 | C[C@@H]1CCN(C(=O)CC#N)C[C@@H]1N(C)c1ncnc2[nH]ccc12 |  |  | > 100 µM |  |  | > 100 µM | > 100 |  | > 100 | > 100 | > 100 | > 100 µM | 57.2 | 34 | > 100 | > 100 | > 100 | 38.1 | > 100
6 | O/N=C1\CC2(N3CCOCC3)CCC1(Cc1ccccc1)CC2 | > 100 µM | > 100 | 63.4 µM | 90.6 | 89.2 | > 100 µM | > 100 | > 100 µM | > 100 |  | > 100 | > 100 µM |  |  |  |  |  |  | 
7 | CSc1nc(-c2cc3c(c(SC)n2)CCC3)cc2c1CCC2 | > 100 µM | > 100 | > 100 µM | > 100 |  | > 100 µM | > 100 | > 100 µM | > 100 | > 100 | > 100 | > 100 µM |  |  |  |  |  |  | 
8 | Cn1c2c(c3ccccc31)CC(=O)N1CCCCC1C21OCCO1 (stereo unspecified) | > 100 µM | > 100 | > 100 µM | > 100 | > 100 | > 100 µM | > 100 | > 100 µM |  | > 100 | > 100 | > 100 µM |  |  |  |  |  |  | 
9 | O=[N+]([O-])c1cccc2nc3ccccc3c(NCCNCCO)c12 | 0.0891 µM and 0.0113 µM | 0.173 | 0.0422 µM and 0.0311 µM | 0.107 | 0.0237 | 0.0277 µM and 0.0202 µM |  | 0.0236 µM and 0.0101 µM | 0.00272 |  | 0.00448 | 0.0278 µM and 0.014 µM |  |  |  |  |  |  | 
10 | Cc1ccc(-c2c(C#N)c(S)n(NS(=O)(=O)c3ccccc3)c(=O)c2C#N)cc1 | 61.1 µM | > 100 | 82 µM | > 100 | > 100 | 77.6 µM |  | > 100 µM | 52.3 | 65.7 | > 100 | 78.9 µM |  |  |  |  |  |  | 
